According to EP4656642A1, “ESTROGEN RECEPTOR PROTEOLYSIS TARGETING CHIMERA COMPOUND AND USE THEREOF” (GAN & LEE PHARM CO., LTD, priority 2023, dated 2024):

Key:
VCaP cells = experiment: Inhibition of proliferation of VCaP cells (WST-8, 168 hours); format: cell-based; conditions: VCaP cells, 168 hours, WST-8
Method: Test Example 7 Inhibitory activity of the compounds disclosed in the present disclosure on the proliferation of VCaP cells
VCaP cells (ATCC, CRL-2876) were cultured in DMEM (Gibco, 11995-065) complete medium containing 10% fetal bovine serum (Hyclone, SH30406.05). On the first day of the experiment, VCaP cells were inoculated in 96-well plates at a density of 15,000 cells/well using DMEM medium containing 10% fetal bovine serum, with 100µL of cell suspension per well, and placed in a cell culture incubator with 5% CO2 at 37°C overnight. […] The compound concentrations were prepared in complete DMEM medium and serially diluted 5-fold starting from 10 µM, resulting in a total of nine concentration points. Wells receiving 100 µL of DMEM medium containing 10% FBS only were used as blank controls. The plates were incubated at 37°C in a 5% CO2 incubator for 168 hours.

AR protein = target: T1, AR protein (Homo sapiens, UniProt P10275, T878A); experiment: Degradation of AR protein in LNCAP cells (Western blot, 8 h); format: cell-based; conditions: LNCaP FGC cells
T1 construct: host or cells: LNCaP FGC
T1 sequence (P10275 1-920 T878A): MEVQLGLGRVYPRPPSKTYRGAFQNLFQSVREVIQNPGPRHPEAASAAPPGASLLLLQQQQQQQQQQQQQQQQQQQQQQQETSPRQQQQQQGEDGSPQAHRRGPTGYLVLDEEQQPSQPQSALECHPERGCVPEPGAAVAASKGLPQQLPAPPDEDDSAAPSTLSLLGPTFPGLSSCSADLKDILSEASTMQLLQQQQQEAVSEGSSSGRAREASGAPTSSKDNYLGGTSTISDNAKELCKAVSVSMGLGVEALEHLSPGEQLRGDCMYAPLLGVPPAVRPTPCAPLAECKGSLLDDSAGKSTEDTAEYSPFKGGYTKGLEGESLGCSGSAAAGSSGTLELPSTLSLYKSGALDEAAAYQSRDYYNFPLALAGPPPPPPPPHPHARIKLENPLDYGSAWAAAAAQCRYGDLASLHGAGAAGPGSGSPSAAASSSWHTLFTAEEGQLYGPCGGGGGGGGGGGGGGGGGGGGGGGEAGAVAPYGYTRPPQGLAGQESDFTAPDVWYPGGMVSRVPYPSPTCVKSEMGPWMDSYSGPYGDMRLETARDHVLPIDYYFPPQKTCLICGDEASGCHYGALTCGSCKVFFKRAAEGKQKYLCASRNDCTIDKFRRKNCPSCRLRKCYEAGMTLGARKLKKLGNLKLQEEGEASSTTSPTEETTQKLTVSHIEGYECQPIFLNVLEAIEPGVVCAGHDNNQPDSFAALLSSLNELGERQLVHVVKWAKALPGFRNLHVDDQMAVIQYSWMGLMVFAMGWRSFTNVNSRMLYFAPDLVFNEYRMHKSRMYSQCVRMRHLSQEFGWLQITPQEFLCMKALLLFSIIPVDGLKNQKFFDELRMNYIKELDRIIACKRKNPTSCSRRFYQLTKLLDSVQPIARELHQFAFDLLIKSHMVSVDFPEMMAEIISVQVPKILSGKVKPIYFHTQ
Method: After 8 h, the culture medium was discarded, and the cells were washed with PBS. After the cells were washed with PBS, RIPA lysis buffer containing 1% Protease Inhibitor Cocktail was added, and the total protein extract was obtained after lysis and centrifugation, and the protein concentration in the extract was detected by BCA method. Protein electrophoresis was carried out by SDS-PAGE, after which the proteins were transferred to PVDF (Millipore Sigma Catalog No. PSRP010R5) membrane by 100V constant voltage electrotransfer for 60 min, and the PVDF membrane was placed in 1×TBST solution with 5% milk and blocked at room temperature for 1h. […] The primary antibody solution was discarded, and the PVDF membrane was washed three times with 1× TBST for 5 min each. […] The secondary antibody solution was discarded, and the PVDF membrane was washed three times with 1× TBST for 5 min each. Western membrane imaging was performed using a dual-color infrared laser imaging system (Licor catalog number Odyssey CLX). Bands were analyzed in grayscale using the software Image Studio. For each sample, GAPDH protein bands were detected as internal reference. The degradation rates of the AR protein for the compounds and positive control sample were calculated based on the grayscale of the protein bands.

## COc1cc(O[C@H]2CC[C@H](NC(=O)c3ccc(N4CCC(C)(CN5CCC6(CC5)COc5c6ccc6c5C(=O)N(C5CCC(=O)NC5=O)C6)CC4)nn3)CC2)ccc1C#N (relative stereo) [2-261]
VCaP cells
  IC50: 12 nM
AR protein
  Degradation rates of the AR protein in LNCAP cells, 10 nM (%): 53%
  Degradation rates of the AR protein in LNCAP cells, 100 nM (%): 70%

## CC1(CN2CCC3(CC2)COc2c3ccc3c2C(=O)N(C2CCC(=O)NC2=O)C3)CCN(c2ccc(C(=O)N[C@H]3CC[C@H](Oc4ccc(C#N)c(Cl)c4)CC3)nn2)CC1 (relative stereo) [2-262]
VCaP cells
  IC50: 11 nM
AR protein
  Degradation rates of the AR protein in LNCAP cells, 10 nM (%): 47%
  Degradation rates of the AR protein in LNCAP cells, 100 nM (%): 68%

## COC1(CN2CCC3(CC2)COc2c3ccc3c2C(=O)N(C2CCC(=O)NC2=O)C3)CCN(c2ccc(C(=O)N[C@H]3CC[C@H](Oc4ccc(C#N)c(Cl)c4)CC3)nn2)CC1 (relative stereo) [2-263]
VCaP cells
  IC50: 11 nM
AR protein
  Degradation rates of the AR protein in LNCAP cells, 10 nM (%): 38%
  Degradation rates of the AR protein in LNCAP cells, 100 nM (%): 69%

## COc1cc(O[C@H]2C(C)(C)[C@H](NC(=O)c3ccc(N4CCC(C)(CN5CCC6(CC5)COc5c6ccc6c5C(=O)N(C5CCC(=O)NC5=O)C6)CC4)cc3)C2(C)C)ccc1C#N (relative stereo) [2-292]
VCaP cells
  IC50: 3 nM
AR protein
  Degradation rates of the AR protein in LNCAP cells, 10 nM (%): 43%
  Degradation rates of the AR protein in LNCAP cells, 100 nM (%): 78%

## COc1cc(O[C@H]2C(C)(C)[C@H](NC(=O)c3ccc(N4CCC(CN5CCC6(CC5)COc5c6ccc6c5C(=O)N(C5CCC(=O)NC5=O)C6)(OC)CC4)cc3)C2(C)C)ccc1C#N (relative stereo) [2-293]
VCaP cells
  IC50: 5 nM
AR protein
  Degradation rates of the AR protein in LNCAP cells, 10 nM (%): 62%
  Degradation rates of the AR protein in LNCAP cells, 100 nM (%): 82%

## N#Cc1ccc(O[C@H]2CC[C@H](NC(=O)c3ccc(N4CCC(F)(CN5CCC6(CC5)COc5c6ccc6c5C(=O)N(C5CCC(=O)NC5=O)C6)CC4)nn3)CC2)cc1Cl (relative stereo) [2-315]
VCaP cells
  IC50: 7 nM
AR protein
  Degradation rates of the AR protein in LNCAP cells, 10 nM (%): 33%
  Degradation rates of the AR protein in LNCAP cells, 100 nM (%): 44%

## COc1cc(O[C@H]2CC[C@H](NC(=O)c3ccc(N4CCC(F)(CN5CCC6(CC5)COc5c6ccc6c5C(=O)N(C5CCC(=O)NC5=O)C6)CC4)nn3)CC2)ccc1C#N (relative stereo) [2-316]
VCaP cells
  IC50: 2 nM
AR protein
  Degradation rates of the AR protein in LNCAP cells, 10 nM (%): 49%
  Degradation rates of the AR protein in LNCAP cells, 100 nM (%): 61%

## COc1cc(O[C@H]2C(C)(C)[C@H](NC(=O)c3ccc(N4CCC(CN5CCC6(CC5)COc5c6ccc6c5C(=O)N(C5CCC(=O)NC5=O)C6)CC4)cc3)C2(C)C)ccc1C#N (relative stereo) [2-318]
VCaP cells
  IC50: 1 nM
AR protein
  Degradation rates of the AR protein in LNCAP cells, 10 nM (%): 58%
  Degradation rates of the AR protein in LNCAP cells, 100 nM (%): 73%

## C[C@H]1CC2(CCN(c3ccc(N4CCC(CN5CCC6(CC5)COc5c6ccc6c5C(=O)N(C5CCC(=O)NC5=O)C6)CC4)cc3)CC2)CN1c1ccc(C#N)c(Cl)c1 (stereo partly drawn) [2-103]
VCaP cells
  IC50: 36 nM
AR protein
  Degradation rates of the AR protein in LNCAP cells, 10 nM (%): 55%
  Degradation rates of the AR protein in LNCAP cells, 100 nM (%): 79%
